{"source": "patent US20260014133A1", "about": "“SUBSTITUTED 3-(l-OXOISOINDOLIN-2-YL)PIPERIDINE-2,6-DIONE/2-(2,6-DIOXOPIPERIDIN-3-YL)ISOINDOLINE-l,3-DIONE ANALOGS AS MODULATORS OF CEREBLON PROTEIN” (St. Jude's Chidren's Research Hospital, Inc., priority 2022, published 2026)"}
{"target": "6×His-CRBN-DDB1 protein (Homo sapiens (Human), UniProt Q96SW2)", "sequence (Q96SW2 whole entry)": "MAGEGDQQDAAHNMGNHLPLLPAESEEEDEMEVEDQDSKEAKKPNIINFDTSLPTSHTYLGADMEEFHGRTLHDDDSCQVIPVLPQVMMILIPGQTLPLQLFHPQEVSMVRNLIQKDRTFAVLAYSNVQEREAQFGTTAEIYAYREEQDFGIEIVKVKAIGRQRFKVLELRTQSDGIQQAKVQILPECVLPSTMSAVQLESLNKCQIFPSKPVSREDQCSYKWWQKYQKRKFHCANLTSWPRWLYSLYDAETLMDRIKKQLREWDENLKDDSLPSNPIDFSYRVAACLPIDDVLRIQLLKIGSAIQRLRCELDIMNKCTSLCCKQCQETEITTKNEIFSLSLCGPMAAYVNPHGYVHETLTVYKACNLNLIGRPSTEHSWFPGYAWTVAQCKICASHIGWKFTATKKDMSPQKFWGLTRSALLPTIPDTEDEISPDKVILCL", "sequence (Q16531 whole entry partner)": "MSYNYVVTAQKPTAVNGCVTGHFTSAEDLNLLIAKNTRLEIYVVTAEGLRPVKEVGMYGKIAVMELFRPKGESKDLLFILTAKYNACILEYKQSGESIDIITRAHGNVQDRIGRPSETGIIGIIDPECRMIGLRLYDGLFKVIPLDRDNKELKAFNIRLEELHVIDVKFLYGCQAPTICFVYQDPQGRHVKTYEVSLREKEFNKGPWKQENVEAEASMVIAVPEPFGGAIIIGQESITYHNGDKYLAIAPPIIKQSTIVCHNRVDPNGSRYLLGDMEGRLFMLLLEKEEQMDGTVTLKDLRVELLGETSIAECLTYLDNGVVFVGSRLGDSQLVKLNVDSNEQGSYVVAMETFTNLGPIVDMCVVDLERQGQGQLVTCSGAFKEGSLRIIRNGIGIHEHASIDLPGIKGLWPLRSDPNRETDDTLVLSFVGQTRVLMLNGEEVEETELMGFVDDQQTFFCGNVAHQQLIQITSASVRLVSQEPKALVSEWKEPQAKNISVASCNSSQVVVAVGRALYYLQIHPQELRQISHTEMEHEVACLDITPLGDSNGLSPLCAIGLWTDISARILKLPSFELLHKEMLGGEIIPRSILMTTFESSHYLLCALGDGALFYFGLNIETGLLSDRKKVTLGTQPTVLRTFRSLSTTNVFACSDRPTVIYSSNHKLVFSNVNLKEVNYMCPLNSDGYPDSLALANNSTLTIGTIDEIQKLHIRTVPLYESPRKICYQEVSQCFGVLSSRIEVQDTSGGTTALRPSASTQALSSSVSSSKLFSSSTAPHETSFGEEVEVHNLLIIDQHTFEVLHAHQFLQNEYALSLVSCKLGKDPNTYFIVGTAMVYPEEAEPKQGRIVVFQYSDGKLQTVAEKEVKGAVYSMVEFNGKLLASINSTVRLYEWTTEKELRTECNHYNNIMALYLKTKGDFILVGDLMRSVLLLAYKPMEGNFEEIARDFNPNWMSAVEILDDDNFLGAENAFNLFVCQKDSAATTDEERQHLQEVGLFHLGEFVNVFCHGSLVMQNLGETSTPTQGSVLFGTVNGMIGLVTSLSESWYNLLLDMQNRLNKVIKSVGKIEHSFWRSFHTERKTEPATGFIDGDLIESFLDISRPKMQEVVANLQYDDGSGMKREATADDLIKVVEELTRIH", "experiment": "CRBN Fluorescence Polarization Assay", "type": "binding", "details": "competitive fluorescence polarization; Cy5-O-Len probe 30 nM, 6×His-CRBN-DDB1 200 nM; 1 hour at room temperature; mean of three independent determinations; read-out: CRBN FP (IC50)", "description": "In this competitive fluorescent polarization assay Cy5 conjugated lenalidomide analog (Cy5-O-Len)^13 was used as a fluorescent probe. 6×His-CRBN-DDB1 protein (200 nM) and Cy5-O-Len probe (30 nM) were combined in 20 mM HEPES pH 7, 150 mM NaCl, 0.005% Tween-20 assay buffer. 20 μL of this assay cocktail was dispensed into wells of Corning 3821 black 384-well plates. Compounds were transferred to the assay plate from a dose-response plate using a Pintool on a Biomek FXP Laboratory Automation Workstation (Beckman Coulter). The plates were incubated in the dark for 1 hour at room temperature and then read on an Envision plate reader (PerkinElmer, Massachusetts, USA). IC50 values were determined using a proprietary software RISE (Robust Investigation of Screening Experiments), developed in house on the Pipeline Pilot platform (Biovia, v. 17.2.0). Data represent the mean of three independent determinations.\nCereblon binding activity was determined as described herein above, and the results are provided below in Table 2 for representative disclosed compounds. Compound number (“Cmpd No.”) refers to the compound number (and associated compound information such as structure, name, etc.) as provided in Table 1. In Table 2 below: cereblon binding IC50 values are categorized as follows: “A” represents IC50 value<1 μM, “B” represents IC50 value between 1 and 10 μM, and “C” represents IC50 value>10 μM.", "units": {"IC50": "nM"}}
{"smiles": "O=C1CCC(N2Cc3cc(Nc4noc5cc(F)ccc45)ccc3C2=O)C(=O)N1", "note": "(centres unmarked) [Compound 62, 3-(5-((6-fluorobenzo[d]isoxazol-3-yl)amino)-1-oxoisoindolin-2-yl)piperidine-2,6-dione]", "IC50": "< 1000"}
{"smiles": "O=C1CCC(N2Cc3cc(NC(=O)c4ccc5nc[nH]c5c4)ccc3C2=O)C(=O)N1", "note": "(centres unmarked) [Compound 27, N-(2-(2,6-dioxopiperidin-3-yl)-1-oxoisoindolin-5-yl)-1H-benzo[d]imidazole-6-carboxamide]", "IC50": "< 1000"}
{"smiles": "Cc1cc(F)cc(C(=O)Nc2ccc3c(c2)CN(C2CCC(=O)NC2=O)C3=O)c1", "note": "(centres unmarked) [Compound 55]", "IC50": "1000 to 10000"}
{"smiles": "CS(=O)(=O)Nc1cccc(C(=O)Nc2ccc3c(c2)CN(C2CCC(=O)NC2=O)C3=O)c1", "note": "(centres unmarked) [Compound 47, N-(2-(2,6-dioxopiperidin-3-yl)-1-oxoisoindolin-5-yl)-3-(methylsulfonamido)benzamide]", "IC50": "1000 to 10000"}
{"smiles": "O=C1CCC(N2Cc3cc(NC(=O)c4cccc(C5CC5)c4)ccc3C2=O)C(=O)N1", "note": "(centres unmarked) [Compound 50, 3-cyclopropyl-N-(2-(2,6-dioxopiperidin-3-yl)-1-oxoisoindolin-5-yl)benzamide]", "IC50": "1000 to 10000"}
{"smiles": "N#Cc1ccccc1C(=O)Nc1ccc2c(c1)CN(C1CCC(=O)NC1=O)C2=O", "note": "(centres unmarked) [Compound 51, 2-cyano-N-(2-(2,6-dioxopiperidin-3-yl)-1-oxoisoindolin-5-yl)benzamide]", "IC50": "1000 to 10000"}
{"smiles": "O=C1CCC(N2Cc3cc(NC(=O)c4ccc(Cl)cc4)ccc3C2=O)C(=O)N1", "note": "(centres unmarked) [Compound 13, 4-chloro-N-(2-(2,6-dioxopiperidin-3-yl)-1-oxoisoindolin-5-yl)benzamide]", "IC50": "< 1000"}
{"smiles": "O=C1CCC(N2Cc3cc(Nc4nc5ccccc5s4)ccc3C2=O)C(=O)N1", "note": "(centres unmarked) [Compound 63, 3-(5-(benzo[d]thiazol-2-ylamino)-1-oxoisoindolin-2-yl)piperidine-2,6-dione]", "IC50": "1000 to 10000"}
{"smiles": "O=C1CCC(N2Cc3cc(NC(=O)c4cccc(F)c4)ccc3C2=O)C(=O)N1", "note": "(centres unmarked) [Compound 8, N-(2-(2,6-dioxopiperidin-3-yl)-1-oxoisoindolin-5-yl)-3-fluorobenzamide]", "IC50": "1000 to 10000"}
{"smiles": "Cc1cc(C(=O)Nc2ccc3c(c2)CN(C2CCC(=O)NC2=O)C3=O)ccc1Br", "note": "(centres unmarked) [Compound 54, 4-bromo-N-(2-(2,6-dioxopiperidin-3-yl)-1-oxoisoindolin-5-yl)-3-methylbenzamide]", "IC50": "1000 to 10000"}
{"smiles": "O=C1CCC(N2Cc3cc(NC(=O)c4ccc(F)cc4)ccc3C2=O)C(=O)N1", "note": "(centres unmarked) [Compound 5, N-(2-(2,6-dioxopiperidin-3-yl)-1-oxoisoindolin-5-yl)-4-fluorobenzamide]", "IC50": "1000 to 10000"}
{"smiles": "O=C1CCC(N2Cc3cc(NC(=O)c4cccc(C(F)(F)F)c4)ccc3C2=O)C(=O)N1", "note": "(centres unmarked) [Compound 12, N-(2-(2,6-dioxopiperidin-3-yl)-1-oxoisoindolin-5-yl)-3-(trifluoromethyl)benzamide]", "IC50": "< 1000"}
{"smiles": "Cc1cc(C(=O)Nc2ccc3c(c2)CN(C2CCC(=O)NC2=O)C3=O)ccc1F", "note": "(centres unmarked) [Compound 56, N-(2-(2,6-dioxopiperidin-3-yl)-1-oxoisoindolin-5-yl)-4-fluoro-3-methylbenzamide]", "IC50": "1000 to 10000"}
{"smiles": "COc1cc(F)cc(C(=O)Nc2ccc3c(c2)CN(C2CCC(=O)NC2=O)C3=O)c1", "note": "(centres unmarked) [Compound 59, N-(2-(2,6-dioxopiperidin-3-yl)-1-oxoisoindolin-5-yl)-3-fluoro-5-methoxybenzamide]", "IC50": "1000 to 10000"}
{"smiles": "CC(C)(O)c1ccc(C(=O)Nc2ccc3c(c2)CN(C2CCC(=O)NC2=O)C3=O)cc1", "note": "(centres unmarked) [Compound 22, N-(2-(2,6-dioxopiperidin-3-yl)-1-oxoisoindolin-5-yl)-4-(2-hydroxypropan-2-yl)benzamide]", "IC50": "1000 to 10000"}
{"smiles": "O=C1CCC(N2Cc3cc(NC(=O)c4ccc(C5CC5)cc4)ccc3C2=O)C(=O)N1", "note": "(centres unmarked) [Compound 48, 4-cyclopropyl-N-(2-(2,6-dioxopiperidin-3-yl)-1-oxoisoindolin-5-yl)benzamide]", "IC50": "1000 to 10000"}
{"smiles": "CC(C)c1cccc(C(=O)Nc2ccc3c(c2)CN(C2CCC(=O)NC2=O)C3=O)c1", "note": "(centres unmarked) [Compound 41, N-(2-(2,6-dioxopiperidin-3-yl)-1-oxoisoindolin-5-yl)-3-isopropylbenzamide]", "IC50": "1000 to 10000"}
{"smiles": "O=C1CCC(N2Cc3cc(NC(=O)c4ccc(OC(F)(F)F)cc4)ccc3C2=O)C(=O)N1", "note": "(centres unmarked) [Compound 43, N-(2-(2,6-dioxopiperidin-3-yl)-1-oxoisoindolin-5-yl)-4-(trifluoromethoxy)benzamide]", "IC50": "1000 to 10000"}
{"smiles": "O=C1CCC(N2Cc3cc(NC(=O)c4ccc(-c5ccn[nH]5)cc4)ccc3C2=O)C(=O)N1", "note": "(centres unmarked) [Compound 21, N-(2-(2,6-dioxopiperidin-3-yl)-1-oxoisoindolin-5-yl)-4-(1H-pyrazol-5-yl)benzamide]", "IC50": "1000 to 10000"}
{"smiles": "O=C1CCC(N2Cc3cc(NC(=O)c4ccccc4C(F)(F)F)ccc3C2=O)C(=O)N1", "note": "(centres unmarked) [Compound 10, N-(2-(2,6-dioxopiperidin-3-yl)-1-oxoisoindolin-5-yl)-2-(trifluoromethyl)benzamide]", "IC50": "< 1000"}
{"smiles": "COCCOc1cccc(C(=O)Nc2ccc3c(c2)CN(C2CCC(=O)NC2=O)C3=O)c1", "note": "(centres unmarked) [Compound 53, N-(2-(2,6-dioxopiperidin-3-yl)-1-oxoisoindolin-5-yl)-3-(2-methoxyethoxy)benzamide]", "IC50": "1000 to 10000"}
{"smiles": "O=C1CCC(N2Cc3cc(NC(=O)c4[nH]c5ccccc5c4Cl)ccc3C2=O)C(=O)N1", "note": "(centres unmarked) [Compound 26, 3-chloro-N-(2-(2,6-dioxopiperidin-3-yl)-1-oxoisoindolin-5-yl)-1H-indole-2-carboxamide]", "IC50": "> 10000"}
{"smiles": "COc1ccccc1C(=O)Nc1ccc2c(c1)CN(C1CCC(=O)NC1=O)C2=O", "note": "(centres unmarked) [Compound 34, N-(2-(2,6-dioxopiperidin-3-yl)-1-oxoisoindolin-5-yl)-2-methoxybenzamide]", "IC50": "1000 to 10000"}
{"smiles": "Cc1ccc(C(=O)Nc2ccc3c(c2)CN(C2CCC(=O)NC2=O)C3=O)cn1", "note": "(centres unmarked) [Compound 20, N-(2-(2,6-dioxopiperidin-3-yl)-1-oxoisoindolin-5-yl)-6-methylnicotinamide]", "IC50": "1000 to 10000"}
{"smiles": "CC(C)c1ccccc1C(=O)Nc1ccc2c(c1)CN(C1CCC(=O)NC1=O)C2=O", "note": "(centres unmarked) [Compound 42, N-(2-(2,6-dioxopiperidin-3-yl)-1-oxoisoindolin-5-yl)-2-isopropylbenzamide]", "IC50": "1000 to 10000"}
{"smiles": "O=C1CCC(N2Cc3cc(C(=O)Nc4ccc(F)cc4)ccc3C2=O)C(=O)N1", "note": "(centres unmarked) [Compound 16, 2-(2,6-dioxopiperidin-3-yl)-N-(4-fluorophenyl)-1-oxoisoindoline-5-carboxamide]", "IC50": "1000 to 10000"}
{"smiles": "O=C1CCC(N2Cc3cc(NC(=O)COCc4ccccc4)ccc3C2=O)C(=O)N1", "note": "(centres unmarked) [Compound 65, 2-(benzyloxy)-N-(2-(2,6-dioxopiperidin-3-yl)-1-oxolsoindolin-5-yl)acetamide]", "IC50": "< 1000"}
{"smiles": "COc1cc(C)cc(C(=O)Nc2ccc3c(c2)CN(C2CCC(=O)NC2=O)C3=O)c1", "note": "(centres unmarked) [Compound 61, N-(2-(2,6-dioxopiperidin-3-yl)-1-oxoisoindolin-5-yl)-3-methoxy-5-methylbenzamide]", "IC50": "1000 to 10000"}
{"smiles": "O=C1CCC(N2Cc3cc(Nc4noc5ccccc45)ccc3C2=O)C(=O)N1", "note": "(centres unmarked) [Compound 38, 3-(5-(benzo[d]isoxazol-3-ylamino)-1-oxoisoindolin-2-yl)piperidine-2,6-dione]", "IC50": "< 1000"}
{"smiles": "CS(=O)(=O)Nc1ccc(C(=O)Nc2ccc3c(c2)CN(C2CCC(=O)NC2=O)C3=O)cc1", "note": "(centres unmarked) [Compound 46, N-(2-(2,6-dioxopiperidin-3-yl)-1-oxoisoindolin-5-yl)-4-(methylsulfonamido)benzamide]", "IC50": "1000 to 10000"}
{"smiles": "O=C1CCC(N2Cc3cc(NC(=O)COc4ccccc4)ccc3C2=O)C(=O)N1", "note": "(centres unmarked) [Compound 64, N-(2-(2,6-dioxopiperidin-3-yl)-1-oxoisoindolin-5-yl)-2-phenoxyacetamide]", "IC50": "< 1000"}
{"smiles": "CN1CCN(Cc2ccc(C(=O)Nc3ccc4c(c3)CN(C3CCC(=O)NC3=O)C4=O)cc2)CC1", "note": "(centres unmarked) [Compound 31]", "IC50": "1000 to 10000"}
{"smiles": "Cc1ccc(C(=O)Nc2ccc3c(c2)CN(C2CCC(=O)NC2=O)C3=O)nc1", "note": "(centres unmarked) [Compound 36, N-(2-(2,6-dioxopiperidin-3-yl)-1-oxoisoindolin-5-yl)-5-methylpicolinamide]", "IC50": "< 1000"}
{"smiles": "CCOc1cc(C)cc(C(=O)Nc2ccc3c(c2)CN(C2CCC(=O)NC2=O)C3=O)c1", "note": "(centres unmarked) [Compound 58, N-(2-(2,6-dioxopiperidin-3-yl)-1-oxoisoindolin-5-yl)-3-ethoxy-5-methylbenzamide]", "IC50": "1000 to 10000"}
{"smiles": "O=C1CCC(N2Cc3cc(NC(=O)c4cccnc4)ccc3C2=O)C(=O)N1", "note": "(centres unmarked) [Compound 6, N-(2-(2,6-dioxopiperidin-3-yl)-1-oxoisoindolin-5-yl)nicotinamide]", "IC50": "1000 to 10000"}
{"smiles": "COc1cccc(C(=O)Nc2ccc3c(c2)CN(C2CCC(=O)NC2=O)C3=O)c1", "note": "(centres unmarked) [Compound 11, N-(2-(2,6-dioxopiperidin-3-yl)-1-oxoisoindolin-5-yl)-3-methoxybenzamide]", "IC50": "< 1000"}
{"smiles": "Cc1cccc(C(=O)Nc2ccc3c(c2)CN(C2CCC(=O)NC2=O)C3=O)n1", "note": "(centres unmarked) [Compound 35, N-(2-(2,6-dioxopiperidin-3-yl)-1-oxoisoindolin-5-yl)-6-methylpicolinamide]", "IC50": "1000 to 10000"}
{"smiles": "CC(N)c1ccc(C(=O)Nc2ccc3c(c2)CN(C2CCC(=O)NC2=O)C3=O)cc1", "note": "(centres unmarked) [Compound 29, 4-(1-aminoethyl)-N-(2-(2,6-dioxopiperidin-3-yl)-1-oxoisoindolin-5-yl)benzamide]", "IC50": "1000 to 10000"}
